This is an account of results in patent US20110178110A1, “Genotype and Expression Analysis for Use in Predicting Outcome and Therapy Selection” (University of Southern California, priority 2008, published 2011).

Experiment [1] deals with stage II colon cancer. Nature of the experiment: Tumor recurrence in stage II colon cancer patients treated with 5-FU based adjuvant chemotherapy. The class given is in vivo, human. On the procedure:
Methods: Blood specimens from 107 patients (median age of 60 years; range: 22-86) were obtained at the University of Southern California medical facilities. All patients were diagnosed with high-risk, lymph node negative, stage II colon cancer and were uniformly treated with 5-FU based adjuvant chemotherapy. The median follow-up was 4.8 years (range: 0.3-16.8). […] Genomic DNA was extracted from peripheral blood and genotypes were determined using PCR-RFLP.

For experiment [2], the system named is metastatic adenocarcinoma of the colon or rectum. The conditions noted are these: individuals with serum LDH more than 1.5 times the upper limit of normal; interim data; cited from earlier work.

Regarding `O=c1[nH]cc(F)c(=O)[nH]1` [5-FU, Fluorouracil], in experiment [1], the “Probability ± SE of 3-year recurrence” value is reported as 0.29 ± 0.06. Also, the “Median time to recurrence (TTR) (95% CI)” value in experiment [1] (by adjuvant therapy) is 9.4 (4.8, 16.8+) yrs. In the case of `Clc1ccc(Nc2nnc(Cc3ccncc3)c3ccccc23)cc1.O=C(O)CCC(=O)O` [PTK/ZK, 1-[4-Chloroanilino]-4-[4-pyridylmethyl]phthalazine Succinate], in experiment [2], the “clinical benefit when PTK/ZK was added to FOLFOX4, compared to FOLFOX4 plus placebo” value is recorded as “greater clinical benefit”.
